From ChEMBL document CHEMBL3045080, “Baseline susceptibility to chlorantraniliprole of Brazilian populations of Plutella xylostella” (2012)

What was measured:
Format in all cases: functional
Plutella xylostella [1] = assay: Insecticidal activity against Plutella xylostella (diamondback moth) CG1 using topical method of compound application
Plutella xylostella [2] = assay: Insecticidal activity against Plutella xylostella (diamondback moth) CG1 using leaf dip immersion method of compound application
Plutella xylostella [3] = assay: Insecticidal activity against Plutella xylostella (diamondback moth) CG1 using potter tower method of compound application
Plutella xylostella [4] = assay: Insecticidal activity against Plutella xylostella (diamondback moth) Brazilian field isolates

SMILES: CNC(=O)c1cc(Cl)cc(C)c1NC(=O)c1cc(Br)nn1-c1ncccc1Cl [CHLORANTRANILIPROLE]
- LC50 (Plutella xylostella [1]): 1.422 mgAi/L
- LC95 (Plutella xylostella [1]): 35.13 mgAi/L
- LC99 (Plutella xylostella [1]): 132.65 mgAi/L
- LC50 (Plutella xylostella [2]): 0.02 mgAi/L
- LC95 (Plutella xylostella [2]): 0.046 mgAi/L
- LC99 (Plutella xylostella [2]): 0.066 mgAi/L
- LC50 (Plutella xylostella [3]): 0.018 mgAi/L
- LC95 (Plutella xylostella [3]): 0.073 mgAi/L
- LC99 (Plutella xylostella [3]): 0.13 mgAi/L
- LC50 (Plutella xylostella [4]): 0.025 mgAi/L
- LC99 (Plutella xylostella [4]): 0.212 mgAi/L
